In the supplement of paper PMC11451515:

Tested on: P12-Ichikawa
Test: cell viability relative to DMSO control; higher = less cytotoxic
Conditions: HPLM + 10% dialyzed FBS, 48 h
Summary of the method: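 Viability is a per-plate percentage relative to DMSO wells, with cell-free wells as background. CellTiter-Glo One luminescence was read after 48 h at 37°C on 1536-well plates (5 μl) of NOMO1 or SEM (500 cells/well) or P12-Ichikawa (1000 cells/well) leukemia cells. The cells had been adapted for at least four passages in each medium and pin-dosed with library compounds in DMSO from 47 μM to 0.79 nM in 11 threefold steps.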

COc1ccc(-n2nc(C(N)=O)c3c2C(=O)N(c2ccc(N4CCCCC4=O)cc2)CC3)cc1
Conditions	cell viability [%]
0.000781 µM	118
0.00234 µM	121
0.00702 µM	125
0.0211 µM	132
0.0632 µM	132
0.19 µM	127
0.569 µM	141
1.71 µM	124
5.12 µM	16
15.4 µM	15.2
46.1 µM	14.8
